Columns and labels:
Assay in all cases: Weeding effect in post-emergence stage (greenhouse pot spray)
Type in all cases: in vivo
Amaranthus retroflexus = test system: Amaranthus retroflexus
Excerpt: The activity level criteria for plant damage (i.e., growth control rate) are as follows:
The above growth control rates are fresh weight control rates.
Experiment on weeding effect in post-emergence stage: monocotyledonous and dicotyledonous weed seeds (Descurainia sophia, Capsella bursa-pastoris, Abutilon theophrasti, Galium aparine, Stellaria media, Lithospermum arvense, rorippa indica, Alopecurus aequalis, Beckmannia syzigachne, Sclerochloa dura, Phleum paniculatum, Bromus japonicus, Aegilops tauschii, Phalaris arundinacea, Amaranthus retroflexus, Chenopodiaceae, Commelina communis, Sonchus arvensis, convolvulus arvensis, Cirsium setosum, Solanum nigrum, Acalypha australis, Digitaria sanguinalis, Echinochloa crusgalli, Setaria viridis, Setaria glauca, Leptochloa chinensis, Monochoria vaginalis, Sagittaria trifolia, Scirpus juncoides, Cyperus rotundus, Cyperus iria, Cyperus difformis, Fimbristylis, Portulaca oleracea, Xanthium sibiricum, Pharbitis nil) and major crop seeds (wheat, corn, rice, soybean, cotton, oilseed rape, millet, sorghum, potato, sesame, ricinus) were placed in plastic pots filled with soil, then covered with 0.5-2 cm of soil, allowed to grow in a good greenhouse environment. After 2 weeks of sowing, the test plants were treated in the 2 to 3 leaf stage. The tested compounds of the present invention were respectively dissolved in acetone, then added with Tween 80 and 1.5 liter/ha of emulsifiable concentrate of methyl oleate as synergist, diluted with a certain amount of water to obtain a solution with a certain concentration, and sprayed with a spray tower onto the plants. After the application, the plants were cultured for 3 weeks in the greenhouse, and then the experimental results of the weeding were counted. The doses of the used compounds were 500, 250, 125, 60, 15 g a.i./ha, and the averages were obtained by repeating for three times.

Abutilon theophrasti = test system: Abutilon theophrasti
Method in brief: (§1)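 Greenhouse post-emergence test: compounds were sprayed at 500, 250, 125, 60 and 15 g a.i./ha onto plants 2 weeks after sowing, and fresh weight control rates were averaged from three replicates 3 weeks later.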

Echinochloa crusgalli = test system: Echinochloa crusgalli
Method in brief: as §1

Digitaria sanguinalis = test system: Digitaria sanguinalis
Method in brief: as §1

Setaria viridis = test system: Setaria viridis
Method in brief: as §1

## Cc1nnc(NC(=O)c2ccc(C(F)(F)F)c([S+]([O-])CCC3CC3)c2F)o1 (stereo not drawn) [Compound 1-395]
Amaranthus retroflexus; Table 2, dose 500 g a.i./ha
  Amaranthus retroflexus (activity level): 5 (Level 5: growth control rate is above 85%)
Abutilon theophrasti; Table 2, dose 500 g a.i./ha
  Abutilion theophrasti (activity level): 5 (Level 5: growth control rate is above 85%)
Echinochloa crusgalli; Table 2, dose 500 g a.i./ha
  Echinochloa crusgah (activity level): 5 (Level 5: growth control rate is above 85%)
Digitaria sanguinalis; Table 2, dose 500 g a.i./ha
  Digitaria sanguinalis (activity level): 5 (Level 5: growth control rate is above 85%)

## Cc1nnc(NC(=O)c2ccc(C(F)(F)F)c([S+]([O-])CCCCl)c2F)o1 (stereo not drawn) [Compound 1-414]
Amaranthus retroflexus; Table 2, dose 250 g a.i./ha
  Amaranthus retroflexus (activity level): 5 (Level 5: growth control rate is above 85%)
Abutilon theophrasti; Table 2, dose 250 g a.i./ha
  Abutilion theophrasti (activity level): 5 (Level 5: growth control rate is above 85%)
Echinochloa crusgalli; Table 2, dose 250 g a.i./ha
  Echinochloa crusgah (activity level): 5 (Level 5: growth control rate is above 85%)
Digitaria sanguinalis; Table 2, dose 250 g a.i./ha
  Digitaria sanguinalis (activity level): 5 (Level 5: growth control rate is above 85%)

## Cc1nnc(NC(=O)c2ccc(C(F)(F)F)c([S+]([O-])CCCC#N)c2F)o1 (stereo not drawn) [Compound 1-428]
Amaranthus retroflexus; Table 2, dose 500 g a.i./ha
  Amaranthus retroflexus (activity level): 5 (Level 5: growth control rate is above 85%)
Abutilon theophrasti; Table 2, dose 500 g a.i./ha
  Abutilion theophrasti (activity level): 5 (Level 5: growth control rate is above 85%)
Echinochloa crusgalli; Table 2, dose 500 g a.i./ha
  Echinochloa crusgah (activity level): 5 (Level 5: growth control rate is above 85%)
Digitaria sanguinalis; Table 2, dose 500 g a.i./ha
  Digitaria sanguinalis (activity level): 5 (Level 5: growth control rate is above 85%)

## Cc1nnc(NC(=O)c2ccc(C(F)(F)F)c([S+]([O-])CC(C)F)c2F)o1 (stereo not drawn) [Compound 1-404]
Amaranthus retroflexus; Table 2, dose 125 g a.i./ha
  Amaranthus retroflexus (activity level): 5 (Level 5: growth control rate is above 85%)
Abutilon theophrasti; Table 2, dose 125 g a.i./ha
  Abutilion theophrasti (activity level): 5 (Level 5: growth control rate is above 85%)
Echinochloa crusgalli; Table 2, dose 125 g a.i./ha
  Echinochloa crusgah (activity level): 5 (Level 5: growth control rate is above 85%)
Digitaria sanguinalis; Table 2, dose 125 g a.i./ha
  Digitaria sanguinalis (activity level): 5 (Level 5: growth control rate is above 85%)

## Cc1nnc(NC(=O)c2ccc(C(F)(F)F)c([S+]([O-])CCC(F)(F)C(F)(F)F)c2F)o1 (stereo not drawn) [Compound 1-412]
Amaranthus retroflexus; Table 2, dose 250 g a.i./ha
  Amaranthus retroflexus (activity level): 5 (Level 5: growth control rate is above 85%)
Abutilon theophrasti; Table 2, dose 250 g a.i./ha
  Abutilion theophrasti (activity level): 5 (Level 5: growth control rate is above 85%)
Echinochloa crusgalli; Table 2, dose 250 g a.i./ha
  Echinochloa crusgah (activity level): 5 (Level 5: growth control rate is above 85%)
Digitaria sanguinalis; Table 2, dose 250 g a.i./ha
  Digitaria sanguinalis (activity level): 5 (Level 5: growth control rate is above 85%)

## Cc1nnc(NC(=O)c2ccc(C(F)(F)F)c([S+]([O-])CCC#N)c2F)o1 (stereo not drawn) [Compound 1-427]
Amaranthus retroflexus; Table 2, dose 500 g a.i./ha
  Amaranthus retroflexus (activity level): 5 (Level 5: growth control rate is above 85%)
Abutilon theophrasti; Table 2, dose 500 g a.i./ha
  Abutilion theophrasti (activity level): 5 (Level 5: growth control rate is above 85%)
Echinochloa crusgalli; Table 2, dose 500 g a.i./ha
  Echinochloa crusgah (activity level): 5 (Level 5: growth control rate is above 85%)
Digitaria sanguinalis; Table 2, dose 500 g a.i./ha
  Digitaria sanguinalis (activity level): 5 (Level 5: growth control rate is above 85%)

## CCC(C)[S+]([O-])c1c(C(F)(F)F)ccc(C(=O)Nc2nnc(C)o2)c1F (mixture of isomers) [Compound 1-17]
Abutilon theophrasti; Table 3, dose 60 g a.i./ha
  Abutilon theophrasti (activity level): 5 (Level 5: growth control rate is above 85%)
Digitaria sanguinalis; Table 3, dose 60 g a.i./ha
  Digitaria sanguinahs (activity level): 5 (Level 5: growth control rate is above 85%)
Setaria viridis; Table 3, dose 60 g a.i./ha
  Setaria viridis (activity level): 5 (Level 5: growth control rate is above 85%)

## C=CCSc1c(C(F)(F)F)ccc(C(=O)Nc2nnc(C)o2)c1F [Compound 1-40]
Amaranthus retroflexus; Table 2, dose 500 g a.i./ha
  Amaranthus retroflexus (activity level): 5 (Level 5: growth control rate is above 85%)
Echinochloa crusgalli; Table 2, dose 500 g a.i./ha
  Echinochloa crusgah (activity level): 5 (Level 5: growth control rate is above 85%)
Digitaria sanguinalis; Table 2, dose 500 g a.i./ha
  Digitaria sanguinalis (activity level): 5 (Level 5: growth control rate is above 85%)

## Cc1nnc(NC(=O)c2ccc(C(F)(F)F)c([S+]([O-])CCCC(F)(F)F)c2F)o1 (stereo not drawn) [Compound 1-411]
Amaranthus retroflexus; Table 2, dose 250 g a.i./ha
  Amaranthus retroflexus (activity level): 5 (Level 5: growth control rate is above 85%)
Abutilon theophrasti; Table 2, dose 250 g a.i./ha
  Abutilion theophrasti (activity level): 5 (Level 5: growth control rate is above 85%)
Echinochloa crusgalli; Table 2, dose 250 g a.i./ha
  Echinochloa crusgah (activity level): 5 (Level 5: growth control rate is above 85%)
Digitaria sanguinalis; Table 2, dose 250 g a.i./ha
  Digitaria sanguinalis (activity level): 5 (Level 5: growth control rate is above 85%)

## C#CCC[S+]([O-])c1c(C(F)(F)F)ccc(C(=O)Nc2nnc(C)o2)c1F (stereo not drawn) [Compound 1-401]
Amaranthus retroflexus; Table 2, dose 250 g a.i./ha
  Amaranthus retroflexus (activity level): 5 (Level 5: growth control rate is above 85%)
Abutilon theophrasti; Table 2, dose 250 g a.i./ha
  Abutilion theophrasti (activity level): 5 (Level 5: growth control rate is above 85%)
Echinochloa crusgalli; Table 2, dose 250 g a.i./ha
  Echinochloa crusgah (activity level): 5 (Level 5: growth control rate is above 85%)
Digitaria sanguinalis; Table 2, dose 250 g a.i./ha
  Digitaria sanguinalis (activity level): 5 (Level 5: growth control rate is above 85%)

## Cc1nnc(NC(=O)c2ccc(C(F)(F)F)c([S+]([O-])CCC(F)(C(F)(F)F)C(F)(F)F)c2F)o1 (stereo not drawn) [Compound 1-413]
Amaranthus retroflexus; Table 2, dose 500 g a.i./ha
  Amaranthus retroflexus (activity level): 5 (Level 5: growth control rate is above 85%)
Echinochloa crusgalli; Table 2, dose 500 g a.i./ha
  Echinochloa crusgah (activity level): 5 (Level 5: growth control rate is above 85%)
Digitaria sanguinalis; Table 2, dose 500 g a.i./ha
  Digitaria sanguinalis (activity level): 5 (Level 5: growth control rate is above 85%)

## Cc1nnc(NC(=O)c2ccc(C(F)(F)F)c([S+]([O-])CCCF)c2F)o1 (stereo not drawn) [Compound 1-403]
Amaranthus retroflexus; Table 2, dose 125 g a.i./ha
  Amaranthus retroflexus (activity level): 5 (Level 5: growth control rate is above 85%)
Abutilon theophrasti; Table 2, dose 125 g a.i./ha
  Abutilion theophrasti (activity level): 5 (Level 5: growth control rate is above 85%)
Echinochloa crusgalli; Table 2, dose 125 g a.i./ha
  Echinochloa crusgah (activity level): 5 (Level 5: growth control rate is above 85%)
Digitaria sanguinalis; Table 2, dose 125 g a.i./ha
  Digitaria sanguinalis (activity level): 5 (Level 5: growth control rate is above 85%)

## Cc1nnc(NC(=O)c2ccc(C(F)(F)F)c([S@@+]([O-])CCC(F)F)c2F)o1 [1-405 (R-configuration)]
Echinochloa crusgalli; Table 3, dose 125 g a.i./ha
  Echinochloa crusgali (activity level): 5 (Level 5: growth control rate is above 85%)
Digitaria sanguinalis; Table 3, dose 125 g a.i./ha
  Digitaria sanguinahs (activity level): 5 (Level 5: growth control rate is above 85%)
Setaria viridis; Table 3, dose 125 g a.i./ha
  Setaria viridis (activity level): 5 (Level 5: growth control rate is above 85%)

## COCC[S@+]([O-])c1c(C(F)(F)F)ccc(C(=O)Nc2nnco2)c1F [3-57 (R-configuration)]
Echinochloa crusgalli; Table 3, dose 125 g a.i./ha
  Echinochloa crusgali (activity level): 5 (Level 5: growth control rate is above 85%)
Digitaria sanguinalis; Table 3, dose 125 g a.i./ha
  Digitaria sanguinahs (activity level): 5 (Level 5: growth control rate is above 85%)
Setaria viridis; Table 3, dose 125 g a.i./ha
  Setaria viridis (activity level): 5 (Level 5: growth control rate is above 85%)

## C#CCC[S@@+]([O-])c1c(C(F)(F)F)ccc(C(=O)Nc2nnc(C)o2)c1F [1-401 (R-configuration)]
Echinochloa crusgalli; Table 3, dose 500 g a.i./ha
  Echinochloa crusgali (activity level): 5 (Level 5: growth control rate is above 85%)
Digitaria sanguinalis; Table 3, dose 500 g a.i./ha
  Digitaria sanguinahs (activity level): 5 (Level 5: growth control rate is above 85%)
Setaria viridis; Table 3, dose 500 g a.i./ha
  Setaria viridis (activity level): 5 (Level 5: growth control rate is above 85%)

## Cc1nnc(NC(=O)c2ccc(C(F)(F)F)c([S@+]([O-])CCCO)c2F)o1 [1-430 (R-configuration)]
Echinochloa crusgalli; Table 3, dose 500 g a.i./ha
  Echinochloa crusgali (activity level): 5 (Level 5: growth control rate is above 85%)
Digitaria sanguinalis; Table 3, dose 500 g a.i./ha
  Digitaria sanguinahs (activity level): 5 (Level 5: growth control rate is above 85%)
Setaria viridis; Table 3, dose 500 g a.i./ha
  Setaria viridis (activity level): 5 (Level 5: growth control rate is above 85%)

## Cc1nnc(NC(=O)c2ccc(C(F)(F)F)c([S@+]([O-])CC(C)(C)C)c2F)o1 [1-392 (R-configuration)]
Echinochloa crusgalli; Table 3, dose 500 g a.i./ha
  Echinochloa crusgali (activity level): 5 (Level 5: growth control rate is above 85%)
Digitaria sanguinalis; Table 3, dose 500 g a.i./ha
  Digitaria sanguinahs (activity level): 5 (Level 5: growth control rate is above 85%)
Setaria viridis; Table 3, dose 500 g a.i./ha
  Setaria viridis (activity level): 5 (Level 5: growth control rate is above 85%)

## CCC[S@+]([O-])c1c(C(F)(F)F)ccc(C(=O)Nc2nnc(CC)o2)c1F [2-8 (R-configuration)]
Echinochloa crusgalli; Table 3, dose 250 g a.i./ha
  Echinochloa crusgali (activity level): 5 (Level 5: growth control rate is above 85%)
Digitaria sanguinalis; Table 3, dose 250 g a.i./ha
  Digitaria sanguinahs (activity level): 5 (Level 5: growth control rate is above 85%)
Setaria viridis; Table 3, dose 250 g a.i./ha
  Setaria viridis (activity level): 5 (Level 5: growth control rate is above 85%)

## CC[S@+]([O-])c1c(C(F)(F)F)ccc(C(=O)Nc2nnco2)c1F [3-5 (R-configuration)]
Echinochloa crusgalli; Table 3, dose 120 g a.i./ha
  Echinochloa crusgali (activity level): 5 (Level 5: growth control rate is above 85%)
Digitaria sanguinalis; Table 3, dose 120 g a.i./ha
  Digitaria sanguinahs (activity level): 5 (Level 5: growth control rate is above 85%)
Setaria viridis; Table 3, dose 120 g a.i./ha
  Setaria viridis (activity level): 5 (Level 5: growth control rate is above 85%)

## Cc1nnc(NC(=O)c2ccc(C(F)(F)F)c([S@@+]([O-])CCCC#N)c2F)o1 [1-428 (R-configuration)]
Echinochloa crusgalli; Table 3, dose 500 g a.i./ha
  Echinochloa crusgali (activity level): 5 (Level 5: growth control rate is above 85%)
Digitaria sanguinalis; Table 3, dose 500 g a.i./ha
  Digitaria sanguinahs (activity level): 5 (Level 5: growth control rate is above 85%)
Setaria viridis; Table 3, dose 500 g a.i./ha
  Setaria viridis (activity level): 5 (Level 5: growth control rate is above 85%)

Reference: patent publication US20230041563A1, “N-(1,3,4-OXADIAZOL-2-YL)ARYLCARBOXAMIDES OR SALTS THEREOF, PREPARATION METHODS, HERBICIDAL COMPOSITIONS AND USES THEREOF” (priority 2018, published 2023)
